The record followed here is PubChem BioAssay AID1963957 (Xavier Lab, Infectious Disease and Microbiome Program, …, 2024).

The assay concerns HeLa GFP-LC3 puncta imaging, 4 h. As to the kind of experiment: autophagy induction measured as tagged microtubule-associated protein 1 light chain 3 foci, microscopic imaging, green fluorescent protein-light chain 3 HeLa reporter, with rapamycin or Torin1 co-treatment (AID 1963957). As to conditions: for puncta normalized to Torin1: at 20 µM, stronger effect = higher value.

Structures are written as SMILES. Active and inactive are the calls of the source.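 The calls were made as follows: active = significant rise in GFP-LC3 puncta area per cell versus the same autophagy-inducer co-treatment given without compound; inactive = the rest.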

Regarding `CCC(C)(C)C(=O)C(=O)N1CCCC[C@H]1C(=O)N[C@H](CCc1ccc(OC)cc1)C(=O)N1[C@@H]2CC[C@H]1CC(Nc1nc(NCCc3sc(N)nc3C)nc(NCCn3cnc4ccccc43)n1)C2` (stereo partly specified), the puncta normalized to Torin1 was 0.49 (no co-treatment), 1.54 (with Rapamycin) and 2.17 (with Torin1).
Take `CCC(C)(C)C(=O)C(=O)N1CCCC[C@H]1C(=O)N[C@H](CCc1ccc(OC)cc1)C(=O)N1[C@@H]2CC[C@H]1CC(Nc1nc(NCCc3sc(N)nc3C)nc(N(C)Cc3nnc4n3CCC4)n1)C2` (stereo partly specified): the puncta normalized to Torin1 runs as follows: (no co-treatment) 0.13 (inactive); (with Rapamycin) 0.68 (inactive); (with Torin1) 0.98 (inactive).
In the case of `CCC(C)(C)C(=O)C(=O)N1CCCC[C@H]1C(=O)N[C@H](CCc1ccc(OC)cc1)C(=O)N1[C@@H]2CC[C@H]1CC(Nc1nc(NCCc3sc(N)nc3C)nc(NCc3ccnc(CO)c3)n1)C2` (stereo partly specified), the puncta normalized to Torin1 (no co-treatment) was 0.14 (inactive), the puncta normalized to Torin1 (with Rapamycin) was 1.02 and the puncta normalized to Torin1 (with Torin1) was 1.59.
In the case of `CCC(=O)N1CCN(c2ccc(-n3c(=O)ccc4cnc5ccc(-c6cnc7ccccc7c6)cc5c43)cc2C(F)(F)F)CC1`, the puncta normalized to Torin1 (with Torin1) was 1.
For the compound `CCC(C)(C)C(=O)C(=O)N1CCCC[C@H]1C(=O)N[C@H](CCc1ccc(OC)cc1)C(=O)N1CC[C@H](Nc2nc(NCCc3sc(N)nc3C)nc(N(C)Cc3nnc4n3CCC4)n2)C1`, the puncta normalized to Torin1 (no co-treatment) was -0.05 (inactive), the puncta normalized to Torin1 (with Rapamycin) is 0.32 (inactive) and the puncta normalized to Torin1 (with Torin1) was 0.72 (inactive).
Take `CS(C)=O`: under “no co-treatment”, the puncta normalized to Torin1 was 0 (inactive).
Regarding `CCC(C)(C)C(=O)C(=O)N1CCCC[C@H]1C(=O)N[C@H](CCc1ccc(OC)cc1)C(=O)N1[C@@H]2CC[C@H]1CC(Nc1nc(NCCc3sc(N)nc3C)nc(N3CCn4ncnc4C3)n1)C2` (stereo partly specified), the EC50 is, setting by setting: (no co-treatment) 12 µM; (with Rapamycin) 11.5 µM; (with Torin1) 29.3 µM.
With `CCC(C)(C)C(=O)C(=O)N1CCCC[C@H]1C(=O)N[C@H](CCc1ccc(OC)cc1)C(=O)N1CC(Nc2nc(NCCc3sc(N)nc3C)nc(NCCn3cnc4ccccc43)n2)C1`, the puncta normalized to Torin1 reads like this: (no co-treatment) 0.06 (inactive); (with Rapamycin) 0.85; (with Torin1) 1.47 (inactive).
`CO[C@H]1C[C@@H]2CC[C@@H](C)[C@@](O)(O2)C(=O)C(=O)N2CCCC[C@H]2C(=O)O[C@H]([C@H](C)C[C@@H]2CC[C@@H](O)[C@H](OC)C2)CC(=O)[C@H](C)/C=C(\C)[C@@H](O)[C@@H](OC)C(=O)[C@H](C)C[C@H](C)\C=C/C=C/C=C/1C`: where the note is “with Rapamycin”, the puncta normalized to Torin1 was 0.39.

In general, EC50 refers to the concentration at which the effect is half-maximal.
